Data published in patent US20110250135A1, “Piperazine Derivatives for Binding and Imaging Amyloid Plaques and Their Use” (Bayer Schering Pharma Aktiengesellschaft, priority 2008, published 2011).

Experiments:
[1] = Biodistribution: organ distribution of F-18 signal in mice; assay type: in vivo, male NMRI mice; settings: for Organ distribution of F-18 signal, intestine: intestine (with content); for Organ distribution of F-18 signal, stomach: stomach (without content)
Outline: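 Male NMRI mice (~30 g, 3 per time point) received ca. 150 kBq of the test compound i.v. via tail vein. At 2, 5, 30, 60 and 240 min, urine and feces were collected and organs and tissues taken for gamma counting. Values are decay-corrected % ID/g ± SD.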

Aβ plaques = biological target: T1, Aβ plaques (Homo sapiens, UniProt P05067); assay: Autoradiographical analysis of binding to cryosections from cortex of AD patients and controls; settings: F-18 labeled compound; Alzheimer's disease patients (AD) vs controls without Aβ plaques
T1 construct: controls without Aβ plaques; from tissue; host or cells: frontal lobe / cortex sections (frozen and paraffin) from AD patients, FTD patients and age-matched controls
Outline: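 Frozen (18 μm) and deparaffinized paraffin (6 μm) frontal-lobe sections from Alzheimer's, frontotemporal dementia and age-matched control brains were incubated 1.5 h at room temperature with F-18 test compound at 10 Bq/μl in 25 mM Hepes pH 7.4, 0.1% BSA. Blocking used 1000-fold excess unlabeled compound; phosphoimager readout.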

T1 sequence (P05067 672-713 limits assumed): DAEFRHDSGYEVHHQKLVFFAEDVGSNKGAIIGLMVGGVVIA

O=C(NCC(=O)N1CCN(c2ccc(OCc3ccccc3)cc2)CC1)c1cccnc1[18F] [Example 12c, N-{2-[4-(4-Benzyloxy-phenyl)-piperazin-1-yl]-2-oxoethyl}-2-[F-18]-fluoro-nicotinamide]
Organ distribution of F-18 signal, adrenals ([1]; 2 min post i.v. injection): 6.60 % ID/g
Organ distribution of F-18 signal, adrenals ([1]; 5 min post i.v. injection): 10.38 % ID/g
Organ distribution of F-18 signal, adrenals ([1]; 30 min post i.v. injection): 2.77 % ID/g
Organ distribution of F-18 signal, adrenals ([1]; 60 min post i.v. injection): 1.55 % ID/g
Organ distribution of F-18 signal, adrenals ([1]; 240 min post i.v. injection): 0.40 % ID/g
Organ distribution of F-18 signal, blood ([1]; 2 min post i.v. injection): 1.78 % ID/g
Organ distribution of F-18 signal, blood ([1]; 5 min post i.v. injection): 1.90 % ID/g
Organ distribution of F-18 signal, blood ([1]; 30 min post i.v. injection): 1.30 % ID/g
Organ distribution of F-18 signal, blood ([1]; 60 min post i.v. injection): 0.70 % ID/g
Organ distribution of F-18 signal, blood ([1]; 240 min post i.v. injection): 0.09 % ID/g
Organ distribution of F-18 signal, brain ([1]; 2 min post i.v. injection): 5.37 % ID/g
Organ distribution of F-18 signal, brain ([1]; 5 min post i.v. injection): 4.60 % ID/g
Organ distribution of F-18 signal, brain ([1]; 30 min post i.v. injection): 1.28 % ID/g
Organ distribution of F-18 signal, brain ([1]; 60 min post i.v. injection): 0.60 % ID/g
Organ distribution of F-18 signal, brain ([1]; 240 min post i.v. injection): 0.07 % ID/g
Organ distribution of F-18 signal, fat ([1]; 2 min post i.v. injection): 1.00 % ID/g
Organ distribution of F-18 signal, fat ([1]; 5 min post i.v. injection): 1.92 % ID/g
Organ distribution of F-18 signal, fat ([1]; 30 min post i.v. injection): 1.89 % ID/g
Organ distribution of F-18 signal, fat ([1]; 60 min post i.v. injection): 1.29 % ID/g
Organ distribution of F-18 signal, fat ([1]; 240 min post i.v. injection): 0.11 % ID/g
Organ distribution of F-18 signal, femur ([1]; 2 min post i.v. injection): 1.70 % ID/g
Organ distribution of F-18 signal, femur ([1]; 5 min post i.v. injection): 1.63 % ID/g
Organ distribution of F-18 signal, femur ([1]; 30 min post i.v. injection): 5.55 % ID/g
Organ distribution of F-18 signal, femur ([1]; 60 min post i.v. injection): 7.65 % ID/g
Organ distribution of F-18 signal, femur ([1]; 240 min post i.v. injection): 7.96 % ID/g
Organ distribution of F-18 signal, heart ([1]; 2 min post i.v. injection): 4.76 % ID/g
Organ distribution of F-18 signal, heart ([1]; 5 min post i.v. injection): 4.28 % ID/g
Organ distribution of F-18 signal, heart ([1]; 30 min post i.v. injection): 1.52 % ID/g
Organ distribution of F-18 signal, heart ([1]; 60 min post i.v. injection): 0.69 % ID/g
Organ distribution of F-18 signal, heart ([1]; 240 min post i.v. injection): 0.08 % ID/g
Organ distribution of F-18 signal, intestine ([1]; 2 min post i.v. injection): 1.78 % ID/g
Organ distribution of F-18 signal, intestine ([1]; 5 min post i.v. injection): 2.44 % ID/g
Organ distribution of F-18 signal, intestine ([1]; 30 min post i.v. injection): 6.62 % ID/g
Organ distribution of F-18 signal, intestine ([1]; 60 min post i.v. injection): 8.88 % ID/g
Organ distribution of F-18 signal, intestine ([1]; 240 min post i.v. injection): 10.54 % ID/g
Organ distribution of F-18 signal, kidney ([1]; 2 min post i.v. injection): 7.70 % ID/g
Organ distribution of F-18 signal, kidney ([1]; 5 min post i.v. injection): 7.76 % ID/g
Organ distribution of F-18 signal, kidney ([1]; 30 min post i.v. injection): 7.88 % ID/g
Organ distribution of F-18 signal, kidney ([1]; 60 min post i.v. injection): 3.63 % ID/g
Organ distribution of F-18 signal, kidney ([1]; 240 min post i.v. injection): 0.58 % ID/g
Organ distribution of F-18 signal, liver ([1]; 2 min post i.v. injection): 5.84 % ID/g
Organ distribution of F-18 signal, liver ([1]; 5 min post i.v. injection): 8.93 % ID/g
Organ distribution of F-18 signal, liver ([1]; 30 min post i.v. injection): 8.20 % ID/g
Organ distribution of F-18 signal, liver ([1]; 60 min post i.v. injection): 6.01 % ID/g
Organ distribution of F-18 signal, liver ([1]; 240 min post i.v. injection): 2.40 % ID/g
Organ distribution of F-18 signal, lung ([1]; 2 min post i.v. injection): 3.52 % ID/g
Organ distribution of F-18 signal, lung ([1]; 5 min post i.v. injection): 3.73 % ID/g
Organ distribution of F-18 signal, lung ([1]; 30 min post i.v. injection): 1.78 % ID/g
Organ distribution of F-18 signal, lung ([1]; 60 min post i.v. injection): 0.79 % ID/g
Organ distribution of F-18 signal, lung ([1]; 240 min post i.v. injection): 0.15 % ID/g
Organ distribution of F-18 signal, muscle ([1]; 2 min post i.v. injection): 2.48 % ID/g
Organ distribution of F-18 signal, muscle ([1]; 5 min post i.v. injection): 17.41 % ID/g
Organ distribution of F-18 signal, muscle ([1]; 30 min post i.v. injection): 0.88 % ID/g
Organ distribution of F-18 signal, muscle ([1]; 60 min post i.v. injection): 0.47 % ID/g
Organ distribution of F-18 signal, muscle ([1]; 240 min post i.v. injection): 0.06 % ID/g
Organ distribution of F-18 signal, pancreas ([1]; 2 min post i.v. injection): 3.58 % ID/g
Organ distribution of F-18 signal, pancreas ([1]; 5 min post i.v. injection): 4.30 % ID/g
Organ distribution of F-18 signal, pancreas ([1]; 30 min post i.v. injection): 1.55 % ID/g
Organ distribution of F-18 signal, pancreas ([1]; 60 min post i.v. injection): 0.75 % ID/g
Organ distribution of F-18 signal, pancreas ([1]; 240 min post i.v. injection): 0.12 % ID/g
Organ distribution of F-18 signal, skin ([1]; 2 min post i.v. injection): 1.25 % ID/g
Organ distribution of F-18 signal, skin ([1]; 5 min post i.v. injection): 1.23 % ID/g
Organ distribution of F-18 signal, skin ([1]; 30 min post i.v. injection): 1.51 % ID/g
Organ distribution of F-18 signal, skin ([1]; 60 min post i.v. injection): 0.66 % ID/g
Organ distribution of F-18 signal, skin ([1]; 240 min post i.v. injection): 0.08 % ID/g
Organ distribution of F-18 signal, spleen ([1]; 2 min post i.v. injection): 1.32 % ID/g
Organ distribution of F-18 signal, spleen ([1]; 5 min post i.v. injection): 2.08 % ID/g
Organ distribution of F-18 signal, spleen ([1]; 30 min post i.v. injection): 0.87 % ID/g
Organ distribution of F-18 signal, spleen ([1]; 60 min post i.v. injection): 0.42 % ID/g
Organ distribution of F-18 signal, spleen ([1]; 240 min post i.v. injection): 0.06 % ID/g
Organ distribution of F-18 signal, stomach ([1]; 2 min post i.v. injection): 3.14 % ID/g
Organ distribution of F-18 signal, stomach ([1]; 5 min post i.v. injection): 3.52 % ID/g
Organ distribution of F-18 signal, stomach ([1]; 30 min post i.v. injection): 1.91 % ID/g
Organ distribution of F-18 signal, stomach ([1]; 60 min post i.v. injection): 1.89 % ID/g
Organ distribution of F-18 signal, stomach ([1]; 240 min post i.v. injection): 0.71 % ID/g
Organ distribution of F-18 signal, tail ([1]; 2 min post i.v. injection): 12.72 % ID/g
Organ distribution of F-18 signal, tail ([1]; 5 min post i.v. injection): 6.80 % ID/g
Organ distribution of F-18 signal, tail ([1]; 30 min post i.v. injection): 2.72 % ID/g
Organ distribution of F-18 signal, tail ([1]; 60 min post i.v. injection): 3.08 % ID/g
Organ distribution of F-18 signal, tail ([1]; 240 min post i.v. injection): 1.30 % ID/g
Organ distribution of F-18 signal, testicle ([1]; 2 min post i.v. injection): 1.21 % ID/g
Organ distribution of F-18 signal, testicle ([1]; 5 min post i.v. injection): 1.79 % ID/g
Organ distribution of F-18 signal, testicle ([1]; 30 min post i.v. injection): 1.09 % ID/g
Organ distribution of F-18 signal, testicle ([1]; 60 min post i.v. injection): 0.58 % ID/g
Organ distribution of F-18 signal, testicle ([1]; 240 min post i.v. injection): 0.08 % ID/g
Organ distribution of F-18 signal, thyroid ([1]; 2 min post i.v. injection): 3.59 % ID/g
Organ distribution of F-18 signal, thyroid ([1]; 5 min post i.v. injection): 3.10 % ID/g
Organ distribution of F-18 signal, thyroid ([1]; 30 min post i.v. injection): 1.92 % ID/g
Organ distribution of F-18 signal, thyroid ([1]; 60 min post i.v. injection): 1.27 % ID/g
Organ distribution of F-18 signal, thyroid ([1]; 240 min post i.v. injection): 0.41 % ID/g
autoradiographical analysis of binding to cryosections from cortex (Aβ plaques): Specific binding in plaque-rich regions of AD samples
